Data set [1] is described as follows: Dynamic vapor sorption (DVS). The format is physicochemical. Conditions: up to 90% RH. As for the experimental part: Example 6: Procedures Used for Dynamic Vapor Sorption (DVS) Measurements
DVS was measured using SMS DVS advantage 01 changing the relative humidity from 0% RH to 95% RH in steps of 10% RH (5% between 90 and 95% RH). 2 cycles were performed using 1-10 mg, starting at 30% RH.

Data set [2] is described as follows: Relative thermodynamic stability of crystalline forms (DSC, XRPD after heating, slurry). It counts as physicochemical. Conditions: form 1 converts to form 3 on heating to 150° C. and upon slurry. As for the experimental part: In a vial Compound (I) form 1 (500 mg) were slurried in a 1:1 mixture of MeCN/water at room temperature for 24 hours. A small sample of wet precipitate was analyzed by XRPD showing the diffractogram of FIG. 3.
DSC was measured using a TA-Instruments Discovery-DSC calibrated at 5°/min to give the melting point as onset value. About 2 mg of sample is heated 5°/min under nitrogen flow in a closed pan with a pinhole in the lid.
Thus, Compound (I) Form 3 was formed upon heating of Compound (I) Form 1.

Data set [3] addresses T1, MAGL (Homo sapiens, UniProt Q99685).
T1 construct: measuring fluorescent intensity of gel bands corresponding to MAGL; endogenous in cells; host or cells: PC3 human cells (membrane proteome)
T1 sequence (Q99685 1-303): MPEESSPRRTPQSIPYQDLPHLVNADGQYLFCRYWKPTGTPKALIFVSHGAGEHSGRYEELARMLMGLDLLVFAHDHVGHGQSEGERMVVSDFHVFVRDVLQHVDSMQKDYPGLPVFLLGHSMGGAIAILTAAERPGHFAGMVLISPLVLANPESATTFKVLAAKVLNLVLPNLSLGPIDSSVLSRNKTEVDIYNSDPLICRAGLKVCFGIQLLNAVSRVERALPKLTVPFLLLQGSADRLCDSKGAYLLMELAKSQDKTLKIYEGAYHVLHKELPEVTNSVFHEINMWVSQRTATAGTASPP
The data set can be described thus: In vitro competitive activity-based protein profiling (ABPP) in PC3 human cell membrane proteomes. It counts as biochemical. Particulars: 30 min preincubation at 37° C., read-out: MAGL % inh. 1 μM (human PC3). Here is the method: In Vitro Competitive Activity-Based Protein Profiling
PC3 human cell membrane proteomes (50 μL, 2.0 mg/mL total protein concentration) were preincubated with varying concentrations of Compound (I) at 37° C. After 30 min, the ABPP probe JW912-Bodipy (1.0 μL, 50 μM in DMSO) was added and the mixture was incubated for 30 min at room temperature. Reactions were quenched with SDS loading buffer (15 μL—4×) and run on SDS-PAGE. Following gel imaging, serine hydrolase activity was determined by measuring fluorescent intensity of gel bands corresponding to MAGL using ImageJ 1.43u software. Intensities were converted to percent enzyme activity by normalizing to DMSO controls. IC50 values were determined by fitting percent enzyme activities to a non-linear regression, 4-parameter, sigmoidal dose response function in Prism GraphPad.

Data set [4] deals with T2, MAGL (Mus musculus, UniProt O35678).
T2 construct: brain proteomes were prepared and analyzed according to previously established methods; from tissue; host or cells: brain of wild-type C57Bl/6J animals
T2 sequence (O35678 1-303): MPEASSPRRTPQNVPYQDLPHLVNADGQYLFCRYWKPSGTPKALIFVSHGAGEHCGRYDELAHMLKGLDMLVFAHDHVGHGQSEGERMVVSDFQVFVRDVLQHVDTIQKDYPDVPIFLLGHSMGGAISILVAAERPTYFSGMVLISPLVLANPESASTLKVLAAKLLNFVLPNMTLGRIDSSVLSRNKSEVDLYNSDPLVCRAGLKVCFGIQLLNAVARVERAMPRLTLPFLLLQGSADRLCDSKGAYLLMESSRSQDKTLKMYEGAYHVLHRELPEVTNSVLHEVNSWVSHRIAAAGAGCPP
The data set can be described thus: In vivo MAGL inhibition, brain proteomes after oral gavage. Particulars: 5 mg/kg oral gavage; C57Bl/6J; brain proteomes 4 h after administration. Here is the method: Compound (I) were administered to wild-type C57Bl/6J by oral gavage in a vehicle of polyethylene glycol. Each animal was sacrificed 4 h following administration and brain proteomes were prepared and analyzed according to previously established methods (See Niphakis, M. J., et al. (2011) ACS Chem. Neurosci. and Long, J. Z., et al. Nat. Chem. Biol. 5:37-44).

SMILES strings stand for the structures.

As for `O=C(Nc1cccnn1)[C@H]1CC12CCN(C(=O)OC(C(F)(F)F)C(F)(F)F)CC2` [Compound (I) form 1, 1,1,1,3,3,3-Hexafluoropropan-2-yl (S)-1-(pyridazin-3-ylcarbamoyl)-6-azaspiro[2.5]octane-6-carboxylate form 1], in data set [1], the “water uptake (DVS)” value is recorded as 1.4 wt %. On to `O=C(Nc1cccnn1)[C@H]1CC12CCN(C(=O)OC(C(F)(F)F)C(F)(F)F)CC2` [Compound (I) form 3, 1,1,1,3,3,3-Hexafluoropropan-2-yl (S)-1-(pyridazin-3-ylcarbamoyl)-6-azaspiro[2.5]octane-6-carboxylate form 3], for which, in data set [1], the “water uptake (DVS)” value is listed as “around 0.1 wt %”. The “thermodynamic stability relative to the other crystalline form” value in data set [2] is reported as “thermodynamically more stable than Compound (I) Form 1”. Consider `O=C(Nc1cccnn1)[C@H]1CC12CCN(C(=O)OC(C(F)(F)F)C(F)(F)F)CC2` [Compound (I), 1,1,1,3,3,3-Hexafluoropropan-2-yl (S)-1-(pyridazin-3-ylcarbamoyl)-6-azaspiro[2.5]octane-6-carboxylate], for which the inhibition at 1 µM on MAGL [3] turned out to be 100%. Moreover, the “MAGL % inh. 5 mg/kg (mouse)” value at MAGL [4] is 100%.

Values taken from US12378219B2, “Crystalline forms of a MAGL inhibitor” (H. LUNDBECK A/S, priority 2022, dated 2025).
